We go through eight compounds from patent US7534892B2, “Sulfonamide compound” (Shionogi & Co., Ltd., priority 2004, dated 2009).

The subject of the assay is food intake of rats. The experiment in a line: Antifeeding activity: food intake after intracerebroventricular infusion of NPYY5 agonist. Format: in vivo. Conditions: Rattus norvegicus, compound 30 mg/kg oral, 0.1 nmol NPYY5 agonist infused one hour later. As for the experimental part:
A guide cannula was implanted in ventriculus lateralis of 7-week-old rats (200-300 g) reared in free-feeding. Then the rats reared in free-feeding about for 1 week.
A compound of the present invention was suspended in 0.5% HPMC solution (hydroxypropylmethylcellulose: 60SH-50, Shin-Etsu Chemical Co., Ltd.) to get a final concentration of 15 mg/ml.
Rats were given 2 mL/kg of a suspension of a compound of the present invention (the compound 30 mg/kg) by oral administration. On the other hand, rats in a control group were given the same amount of 0.5% HPMC by oral administration.
NPYY5 agonist ([cPP^1-7, NPY^19-23, Ala^31, Aib^32, Gln^34]-hPancreatic Polypeptide: Tocris Coockson) was dissolved in a physiological salt solution to be 0.1 nmol/10 μL. 0.1 nmol of the solution was infused via a guide cannula in a head of the rat one hour after giving a compound of the present invention. Immediately after the infusion, the amount of the remaining food was measured.
The amount of the remaining food was measured 1, 2 or 4 hour(s) after the infusion of an agonist and the food intake for this period was calculated. An antifeeding rate of a compound of the present invention against the food intake of rats in a control group was calculated.

Setting [1] is: food intake 1 h after infusion vs control group, read-out: Antifeeding activity (%) 1 h.
Setting [2] is: food intake 2 h after infusion vs control group, read-out: Antifeeding activity (%) 2 h.
[3] abbreviates: food intake 4 h after infusion vs control group, read-out: Antifeeding activity (%) 4 h.

Where two headings read alike, the source gives them in different places.

For `CCS(=O)(=O)N[C@H]1CC[C@H](C(=O)Nc2ccc(OCC(F)(F)F)nc2)CC1` [Ia-2], the inhibition in vivo at 30 mg/kg stood at 98% under setting [1], 77% under setting [2] and 56% under setting [3].
The matching figures for `CCS(=O)(=O)NCCCCC(=O)Nc1ccc(OCC(F)(F)F)nc1` [Ia-3]: 85%, 78% and 74%.
The matching figures for `CCS(=O)(=O)N[C@H]1CC[C@H](C(=O)Nc2ccc(N3C[C@@H](C)O[C@@H](C)C3)cc2)CC1` [Ib-1]: 90%, 95% and 92%.
For `CCn1c2ccccc2c2cc(NC(=O)[C@H]3CC[C@H](NS(=O)(=O)CC)CC3)ccc21` [Id-1] the same measures were 5%, 37% and 49%.
`CCn1c2ccccc2c2cc(NC(=O)CCCCNS(=O)(=O)CC)ccc21` [Id-2]: the inhibition in vivo at 30 mg/kg amounted to 100% under setting [1], 100% under setting [2] and 100% under setting [3].
As to `CCS(=O)(=O)NCCCCC(=O)Nc1ccc2c(c1)c1c(n2C(C)C)CCCC1` [Id-4], the inhibition in vivo at 30 mg/kg under setting [1] was found to be 100%, the inhibition in vivo at 30 mg/kg under setting [2] is 94% and the inhibition in vivo at 30 mg/kg under setting [3] stood at 95%.
For `CCn1c2ccccc2c2cc(NC(=O)CCNS(=O)(=O)CC(F)(F)F)ccc21` [Ig-1] the same measures were 67%, 44% and 48%.
The matching figures for `CN(C)S(=O)(=O)N[C@H]1CC[C@H](C(=O)Nc2ccc(C(F)(F)F)cc2)CC1` [Ii-1]: 42%, 38% and 31%.
